Data taken from US12655174B2, “Adenosine A3 receptor agonists, preparation methods and uses thereof” (ZHEJIANG VIMGREEN PHARMACEUTICALS, LTD., priority 2020, dated 2026).

What was measured:
[1] = molecular target: T1, ADORA3 receptor (CHO cells stably expressing ADORA3 receptor) (Homo sapiens, UniProt P0DMS8); assay: Effect of compound on intracellular cAMP level by adenosine A3 receptor agonism; type: cell-based; settings: forskolin-stimulated
T1 construct: expressed in transfected cells
T1 sequence (P0DMS8 1-318): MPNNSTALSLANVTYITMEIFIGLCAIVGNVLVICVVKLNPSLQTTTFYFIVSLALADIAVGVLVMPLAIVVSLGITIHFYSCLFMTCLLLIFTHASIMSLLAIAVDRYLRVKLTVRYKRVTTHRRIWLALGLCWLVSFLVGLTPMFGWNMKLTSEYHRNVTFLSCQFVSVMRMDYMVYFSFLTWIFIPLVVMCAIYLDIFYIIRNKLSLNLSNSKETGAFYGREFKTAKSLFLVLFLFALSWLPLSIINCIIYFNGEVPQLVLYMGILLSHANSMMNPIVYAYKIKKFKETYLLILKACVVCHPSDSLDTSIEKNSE
Experimental: Example 26: Test the Effect of Compound on Intracellular cAMP Level by Adenosine A3 Receptor Agonism
• 1) 1×HBSS with Ca2+ and Mg2+ (14 mL), 1 M HEPES (75 μL), a 7.5% (w/v) BSA stabilizer (pH 7.4, 200 μL), and 20 mM rolipram (7.5 μL) were respectively prepared as cAMP assay buffer. • 2) Preparation of compound source plate • a. […] A 10 mM stock solution was subjected to a 3-fold serial dilution by 100% (v/v) DMSO to prepare 10 doses of the test substance. • c. 1 mM of Forskolin was prepared by 100% (v/v) DMSO. • 3) Preparation of test plate • a. Prior to the assay, CHO cells stably expressing ADORA3 receptor were harvested and the cells were counted by using a Countess cell counter. […] The cells were seeded at a density of 2,000 cells/well in a 384-well plate. • 4) 10 nL/well of the serially diluted compound and 10 nL/well of 1 mM of forskolin were transferred to each well with ADORA3 receptor expressing cells by using Echo550. • 5) A cell plate was centrifuged at 1,000 rpm for 1 minute and then stirred at 600 rpm for 2 minutes. The plate was incubated at 37° C. • 6) An Eu-cAMP tracer working solution and an Ulight-anti-cAMP working solution were prepared according to the following table.
• 7) 5 μl/well of the Eu-cAMP tracer working solution and 5 μl/well of the Ulight-anti-cAMP working solution were added to each well of the plate. […] 2. Data Analysis • 1) An activation percentage was calculated by using the following formula:
[formula] • % Activation: activation percentage • Ratiocpd: ratio of emissivity of test compound • RatioLow control: ratio of low emissivity • RatioHigh control: ratio of high emissivity • 2) EC50 was calculated by an XLfit using the Hill equation to fit the activity percentage and a log of a compound concentration. 3. Test Result

[2] = Pharmacokinetic test of compound in SD rat; type: in vivo; settings: SD rats, intragastric administration (IG), cassette dosing
Experimental: Example 28: Pharmacokinetic Test of Compound in SD Rat
The animal species used in this experiment were SD rats. There were 3 animals per group. The rats were dosed in cassette format, i.e., multiple (1-6) different compounds were dosed simultaneously to the same group of the SD rats. The vehicle used for the drug was 5% DMSO+5% Solutl+90% ([…] methylcellulose M450), and the administration route was intragastric administration (IG).

Row | SMILES | EC50 [1] | AUC_D [2]
1 | CNC(=O)[C@H]1O[C@@H](n2cnc3c(NC)nc(-c4cncc(Cl)c4)nc32)[C@H](O)[C@@H]1O [compound 70, (2S,3S,4R,5R)-5-(2-(5-chloropyridin-3-yl)-6-(methylamino)-9H-purin-9-yl)-3,4-dihydroxyl-N-methyltetrahydrofuran-2-carboxamide] | 1.23 nM | –
2 | CNC(=O)[C@H]1O[C@@H](n2cnc3c(NC)nc(-c4cccnc4)nc32)[C@H](O)[C@@H]1O [compound 102, (2S,3S,4R,5R)-3,4-dihydroxyl-N-methyl-5-(6-(methylamino)-2-(pyridin-3-yl)-9H-purin-9-yl)tetrahydrofuran-2-carboxamide] | 1.41 nM | –
3 | CNC(=O)[C@H]1O[C@@H](n2cnc3c(NCc4cccc(C)n4)nc(-c4cccnc4)nc32)[C@H](O)[C@@H]1O [compound 107] | 5.22 nM | –
4 | [2H]C([2H])([2H])NC(=O)[C@H]1O[C@@H](n2cnc3c(NCc4cc(C)cc(Cl)c4)nc(-c4cncc(Cl)c4)nc32)[C@H](O)[C@@H]1O [compound 222, (2S,3S,4R,5R)-5-(6-((3-chloro-5-methylbenzyl)amino)-2-(5-chloropyridin-3-yl)-9H-purin-9-yl)-3,4-dihydroxyl-N-(methyl-d3)-tetrahydrofuran-2-carboxamide] | 0.89 nM | –
5 | [2H]C([2H])([2H])NC(=O)[C@H]1O[C@@H](n2cnc3c(NCc4cccc(Br)c4)nc(-c4cncc(Cl)c4)nc32)[C@H](O)[C@@H]1O [compound 248, (2S,3S,4R,5R)-5-(6-((3-bromobenzyl)amino)-2-(5-chloropyridin-3-yl)-9H-purin-9-yl)-3,4-dihydroxyl-N-(methyl-d3)tetrahydrofuran-2-carboxamide] | – | 3298.00 kg·ng·h/mL/mg
6 | [2H]C([2H])([2H])NC(=O)[C@H]1O[C@@H](n2cnc3c(NCc4cccc(I)c4)nc(-c4cncc(Cl)c4)nc32)[C@H](O)[C@@H]1O [compound 250, (2S,3S,4R,5R)-5-(2-(5-chloropyridin-3-yl)-6-((3-iodobenzyl)amino)-9H-purin-9-yl)-3,4-dihydroxyl-N-(methyl-d3)tetrahydrofuran-2-carboxamide] | – | 2137.00 kg·ng·h/mL/mg
7 | [2H]C([2H])([2H])NC(=O)[C@H]1O[C@@H](n2cnc3c(N[C@H](C)c4ccccc4)nc(-c4cncc(Cl)c4)nc32)[C@H](O)[C@@H]1O [compound 251] | – | 610.00 kg·ng·h/mL/mg
8 | [2H]C([2H])([2H])NC(=O)[C@H]1O[C@@H](n2cnc3c(N[C@@H](C)c4ccccc4)nc(-c4cncc(Cl)c4)nc32)[C@H](O)[C@@H]1O [compound 252] | – | 532.00 kg·ng·h/mL/mg
9 | [2H]C([2H])([2H])NC(=O)[C@H]1O[C@@H](n2cnc3c(NCc4cscn4)nc(-c4cncc(Cl)c4)nc32)[C@H](O)[C@@H]1O [compound 253, (2S,3S,4R,5R)-5-(2-(5-chloropyridin-3-yl)-6-((thiazol-4-ylmethyl)amino)-9H-purin-9-yl)-3,4-dihydroxyl-N-(methyl-d3)tetrahydrofuran-2-carboxamide] | – | 299.00 kg·ng·h/mL/mg
10 | [2H]C([2H])([2H])NC(=O)[C@H]1O[C@@H](n2cnc3c(NCc4cocn4)nc(-c4cncc(Cl)c4)nc32)[C@H](O)[C@@H]1O [compound 257, (2S,3S,4R,5R)-5-(2-(5-chloropyridin-3-yl)-6-((oxazol-4-ylmethyl)amino)-9H-purin-9-yl)-3,4-dihydroxyl-N-(methyl-d3)tetrahydrofuran-2-carboxamide] | – | 96.00 kg·ng·h/mL/mg
11 | [2H]C([2H])([2H])NC(=O)[C@H]1O[C@@H](n2cnc3c(NCc4cccc(OC)c4)nc(-c4cncc(Cl)c4)nc32)[C@H](O)[C@@H]1O [compound 265, (2S,3S,4R,5R)-5-(2-(5-chloropyridin-3-yl)-6-(3-methoxybenzylamino)-9H-purin-9-yl)-3,4-dihydroxyl-N-(methyl-d3)-tetrahydrofuran-2-carboxamide] | – | 764.50 kg·ng·h/mL/mg
12 | [2H]C([2H])([2H])NC(=O)[C@H]1O[C@@H](n2cnc3c(NCc4ccc(OC)cc4)nc(-c4cncc(Cl)c4)nc32)[C@H](O)[C@@H]1O [compound 267, (2S,3S,4R,5R)-5-(2-(5-chloropyridin-3-yl)-6-(4-methoxybenzylamino)-9H-purin-9-yl)-3,4-dihydroxyl-N-(methyl-d3)-tetrahydrofuran-2-carboxamide] | – | 82.98 kg·ng·h/mL/mg
13 | [2H]C([2H])([2H])NC(=O)[C@H]1O[C@@H](n2cnc3c(NCc4cccc(C)n4)nc(-c4cncc(Cl)c4)nc32)[C@H](O)[C@@H]1O [compound 271, (2S,3S,4R,5R)-5-(2-(5-chloropyridin-3-yl)-6-((6-methylpyridin-2-yl)methylamino)-9H-purin-9-yl)-3,4-dihydroxyl-N-(methyl-d3)-tetrahydrofuran-2-carboxamide] | – | 1131.18 kg·ng·h/mL/mg

The remaining lines, values ahead:

Row | EC50 [1] | AUC_D [2] | SMILES
14 | 9.62 nM | – | CNC(=O)[C@H]1OC(n2cnc3c(NCc4ccccc4)nc(-c4ccccn4)nc32)[C@H](O)[C@@H]1O (stereo in doubt) [compound 325, (2S,3S,4R,5S)-5-(6-(benzylamino)-2-(pyridin-2-yl)-9H-purin-9-yl)-3,4-dihydroxyl-N-methyltetrahydrofuran-2-carboxamide]
15 | – | 175.00 kg·ng·h/mL/mg | [2H]C([2H])([2H])NC(=O)[C@H]1O[C@@H](n2cnc3c(NCCC)nc(-c4cncc(Cl)c4)nc32)[C@H](O)[C@@H]1O [compound 285, (2S,3S,4R,5R)-5-(2-(5-chloropyridin-3-yl)-6-(propylamino)-9H-purin-9-yl)-3,4-dihydroxyl-N-(methyl-d3)-tetrahydrofuran-2-carboxamide]
16 | – | 118.00 kg·ng·h/mL/mg | [2H]C([2H])([2H])NC(=O)[C@H]1O[C@@H](n2cnc3c(NCCOC)nc(-c4cncc(Cl)c4)nc32)[C@H](O)[C@@H]1O [compound 288, (2S,3S,4R,5R)-5-(2-(5-chloropyridin-3-yl)-6-((2-methoxyethyl)amino)-9H-purin-9-yl)-3,4-dihydroxyl-N-(methyl-d3)-tetrahydrofuran-2-carboxamide]
17 | – | 610.66 kg·ng·h/mL/mg | CNC(=O)[C@H]1O[C@@H](n2cnc3c(NCc4cccc(C)n4)nc(-c4cncc(C)c4)nc32)[C@H](O)[C@@H]1O [compound 295, (2S,3S,4R,5R)-3,4-dihydroxyl-N-methyl-5-(6-(((6-methylpyridin-2-yl)methyl)amino)-2-(5-methylpyridin-3-yl)-9H-purin-9-yl)tetrahydrofuran-2-carboxamide]
18 | – | 74.00 kg·ng·h/mL/mg | [2H]C([2H])([2H])NC(=O)[C@H]1O[C@@H](n2cnc3c(NC(C)C)nc(-c4cncc(Cl)c4)nc32)[C@H](O)[C@@H]1O [compound 319, (2S,3S,4R,5R)-5-(2-(5-chloropyridin-3-yl)-6-(isopropylamino)-9H-purin-9-yl)-3,4-dihydroxyl-N-(methyl-d3)tetrahydrofuran-2-carboxamide]
19 | – | 1167.46 kg·ng·h/mL/mg | [2H]C([2H])([2H])NC(=O)[C@H]1O[C@@H](n2cnc3c(NCc4cccc(F)c4)nc(-c4cncc(Cl)c4)nc32)[C@H](O)[C@@H]1O [compound 321]
20 | – | 97.03 kg·ng·h/mL/mg | CNC(=O)[C@H]1O[C@@H](n2cnc3c(NCc4ccc(F)c(F)c4)nc(-c4cncc(Cl)c4)nc32)[C@H](O)[C@@H]1O [compound 322, (2S,3S,4R,5R)-5-(2-(5-chloropyridin-3-yl)-6-((3,4-difluorobenzyl)amino)-9H-purin-9-yl)-3,4-dihydroxyl-N-methyltetrahydrofuran-2-carboxamide]
21 | – | 1309.00 kg·ng·h/mL/mg | [2H]C([2H])([2H])NC(=O)[C@H]1O[C@@H](n2cnc3c(OCc4ccccc4)nc(-c4cncc(Cl)c4)nc32)[C@H](O)[C@@H]1O [compound 323, (2S,3S,4R,5R)-5-(6-(benzyloxy)-2-(5-chloropyridin-3-yl)-9H-purin-9-yl)-3,4-dihydroxyl-N-(methyl-d3)-tetrahydrofuran-2-formamide]
22 | – | 78.00 kg·ng·h/mL/mg | CCNC(=O)[C@H]1O[C@@H](n2cnc3c(N)nc(-c4cncc(Cl)c4)nc32)[C@H](O)[C@@H]1O [compound 324, (2S,3S,4R,5R)-5-(6-amino-2-(5-chloropyridin-3-yl)-9H-purin-9-yl)-N-ethyl-3,4-dihydroxyltetrahydrofuran-2-formamide]
